This assay concerns cultured chick heart cells. The assay is described as follows: Effect of TPB on the Ko-dependence of Tc-MIBI influx rates; plasma membrane potential by Goldman flux equation (FIG. 6). The class given is cell-based. The protocol:
FIG. 6. Effect of TPB on the Ko -dependence of Tc-MIBI influx rates. A) Preparations were preincubated in MEBSS containing the indicated Ko (K-MSA substitution for NaCl) for 1 minute in the absence (.quadrature.) and for 5 minutes in the presence ( ) of valinomycin (1 ug/ml) prior to determination of 2-min Tc-MIBI uptakes in buffer of the same composition. B) Same conditions as A with a 5-minute pre-incubation period in buffers that also contained TPB (10^-5 M) in the absence (o) or presence (·) of valinomycin. C) Resting membrane potential (Em) as a function of Ko. Em was calculated from the Tc-MIBI influx data shown in A in the presence of valinomycin using the Goldman flux equation (Restrepo, D., et al., J. Gen. Physiol. 92:489-507 (1988)): J/Jo =-x/(1-e^x) where x=Em F/RT and J/Jo is the ratio of Tc-MIBI influx rates at Em and zero membrane potential (Ko =130 mM), respectively. RT/F equals 26 mV at 37° C. The solid lines in A and B have no theoretical significance. The solid line in C represents a linear regression of the data: -Em =-67 log Ko +147mV (r=-0.99). […] Each point is the mean ±SEM of 3 determinations.
Monolayers of spontaneously contractile chick ventricular myocardial cells were obtained from disaggregated 10-day old chick embryo hearts by a slight modification of previously published methods (Horres, C. R., et al., In Pinson, A. (ed.), The Heart Cell in Culture, Boca Raton, CRC Press, pp. 77-108 (1987)). Hearts were trimmed of connective tissue and atria, finely minced and serially exposed to 0.024% (w/v) trypsin in Ca^2+ - and Mg^2+ - free Earle's salt solution for 7 minutes at 37° C. Gentle trituration and agitation on an orbital shaker bath aided disaggregation. Cells released from the first exposure were discarded and cells aspirated from the next four exposures were then added to an equal volume of trypsin deactivating solution consisting of ice-cold culture medium. Cells were centrifuged at 400 g for 10 minutes, resuspended and combined in culture medium, counted with a hemocytometer and diluted to yield a suspension of 5×10^5 cells/ml. 12 ml of suspension were incubated in 100 mm plastic culture dishes containing 7 coverslips (25 mm diameter) placed on the bottom of each dish to serve as substrate for cell growth. Cells were maintained in a humidified atmosphere of 5% CO2 /95% air for 3-4 days yielding a confluent layer of spontaneously contractile myocytes on each coverslip.
Radioactive uptake methods have been described in detail (Piwnica-Worms, D., et al, Circ. (in press). Briefly, coverslips with confluent cells were removed from culture media and pre-equilibrated for 40-60 seconds in MEBSS buffer. Uptake and retention experiments were initiated by immersion of coverslips in 60 mm glass Pyrex dishes containing loading solution consisting of buffer with 0.1-0.6 nM [^99m Tc-MIBI] (0.01-0.4 Ci/nmole; 25-100 uCi/ml). Preparations were removed at various times and rinsed three times in 25 ml volumes of ice-cold (2° C.) isotope-free buffer for 8 seconds each to clear extracellular spaces. Preparations and aliquots of the loading buffer and stock solutions were counted in a well-type sodium iodide gamma counter after which cell protein on each coverslip was extracted in 1% sodium dodecylsulfate with 10 mM sodium borate and assayed by the method of Lowry (Lowry, O. H., et al., J. Biol. Chem. 193:265-275 (1951)). Tc-MIBI binding to glass coverslips without cells was used as an estimate of non-specific adhesion to the substrate ([…] obtained with cellular preparations); this value was subtracted from total uptake determinations to derive the cell-associated counts. Use of generator equilibrium equations (Lamson, M. L., et al., i J. Nucl. Med. 16:639-641 (1975)) allowed calculation of absolute moles of Tc-MIBI in solutions and preparations. Results were therefore expressed as fmol cellular Tc-MIBI/mg protein per nM extracellular Tc-MIBI concentration. […]

SMILES strings stand for the structures.

Take `[C-]#[N+]CC(C)(C)OC.[C-]#[N+]CC(C)(C)OC.[C-]#[N+]CC(C)(C)OC.[C-]#[N+]CC(C)(C)OC.[C-]#[N+]CC(C)(C)OC.[C-]#[N+]CC(C)(C)OC.[Tc]` [Tc-MIBI, hexakis(methoxyisobutylisonitrile)technetium(I)]: where the note is “absence of TPB”, the “valinomycin sensitivity of Tc-MIBI influx” value is on record as “only modestly valinomycin-sensitive”. Besides, where the note is “presence of TPB 10^-5 M”, the “valinomycin sensitivity of Tc-MIBI influx” value is on record as “highly valinomycin-sensitive”. The “Nernstian behavior of Tc-MIBI” value (presence of valinomycin) was “close to ideal Nernstian behavior”. Moreover, the “correlation coefficient r, Em vs log Ko from Tc-MIBI influx” value (valinomycin 1 ug/ml, no TPB) is -0.99. For the same compound, the “slope of membrane potential vs log Ko from Tc-MIBI influx” value (valinomycin 1 ug/ml, no TPB, Goldman flux equation) is -67 mV/decade. Further, under “valinomycin, FIG. 6C”, the “regression -Em = -67 log Ko + 147 mV: intercept” value turned out to be 147 mV and the “regression -Em = -67 log Ko + 147 mV: slope” value is recorded as -67.
